Where two headings read alike, the source gives them in different places.
What was measured:
[1] = background statement; cited from earlier work
[2] = Accelerated stability studies of API/stabilizer preparations (Example 1), lactam impurity A by HPLC; type: physicochemical

O=C(O)CC(CO)c1ccc(Cl)cc1 (centres unmarked) [Treatment M1, 3-(4-chlorophenyl)-4-hydroxybutyric acid]
biological activity of metabolite (limited evaluation) [1]: inactive
share of dominant metabolite of baclofen (reported) [1]: 15%

NCC(CC(=O)O)c1ccc(Cl)cc1 (centres unmarked) [baclofen, 4-amino-3-(4-chlorophenyl)butanoic acid]
effect of EUDRAGIT E on formation of lactam impurity A ([2]; closed glass vials, 60° C. (baclofen, gabapentin) or 80° C. (pregabalin), HPLC, FIGS. 1-12): stabilization effect

NCC1(CC(=O)O)CCCCC1 [gabapentin]
effect of EUDRAGIT E on formation of lactam impurity A [2]: destabilization effect

CC(C)C[C@H](CN)CC(=O)O [pregabalin]
effect of EUDRAGIT E on formation of lactam impurity A [2]: destabilization effect

From patent US12383522B2, “Baclofen formulations and methods of minimizing patient exposure to metabolite variations” (AMNEAL PHARMACEUTICALS LLC, priority 2021, dated 2025)
